Measurements taken from patent US20210045385A1, “PYRIDAZINONE-SUBSTITUTED KETOXIMES AS HERBICIDES” (FMC Corporation, priority 2018, published 2021).

How the values were obtained:
Assay type in all cases: in vivo
[1] = test system: galium (catchweed bedstraw, Galium aparine); test: Test A postemergence, visual plant response rating; conditions: for Galium plant response rating (0 to 100 scale): 500 g ai/ha, postemergence, 0 is no effect, 100 is complete control; for Galium plant response rating: Postemergence, 125 g ai/ha, 0 to 100 scale (0 no effect, 100 complete control)
In short: (§1)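 Formulated in a non-phytotoxic solvent mixture including surfactant, each test chemical was sprayed onto the soil surface after sowing, or onto seedlings 2 to 10 cm high. Roughly 10 days later, plants were compared with untreated controls and rated for injury from 0 (no effect) to 100 (complete control).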

[2] = test system: barnyardgrass (Echinochloa crus-galli); test: Test A postemergence, visual plant response rating; conditions: for Barnyardgrass plant response rating (0 to 100 scale): 500 g ai/ha, postemergence, 0 is no effect, 100 is complete control; for Barnyardgrass plant response rating: Postemergence, 125 g ai/ha, 0 to 100 scale (0 no effect, 100 complete control)
In short: as §1

kochia (Kochia scoparia) [3] = test: Test A postemergence, visual plant response rating; conditions: for Kochia plant response rating (0 to 100 scale): 500 g ai/ha, postemergence, 0 is no effect, 100 is complete control; for Kochia plant response rating: Postemergence, 125 g ai/ha, 0 to 100 scale (0 no effect, 100 complete control)
In short: as §1

[4] = test system: foxtail, giant (giant foxtail, Setaria faberii); test: Test A postemergence, visual plant response rating; conditions: for Foxtail, Giant plant response rating (0 to 100 scale): 500 g ai/ha, postemergence, 0 is no effect, 100 is complete control; for Foxtail, Giant plant response rating: Postemergence, 125 g ai/ha, 0 to 100 scale (0 no effect, 100 complete control)
In short: as §1

corn (Zea mays) = test: Test A postemergence, visual plant response rating; conditions: for Corn plant response rating (0 to 100 scale): 500 g ai/ha, postemergence, 0 is no effect, 100 is complete control; for Corn plant response rating: Postemergence, 125 g ai/ha, 0 to 100 scale (0 no effect, 100 complete control)
In short: as §1

[5] = test system: blackgrass (Alopecurus myosuroides); test: Test A postemergence, visual plant response rating; conditions: for Blackgrass plant response rating (0 to 100 scale): 500 g ai/ha, postemergence, 0 is no effect, 100 is complete control; for Blackgrass plant response rating: Postemergence, 125 g ai/ha, 0 to 100 scale (0 no effect, 100 complete control)
In short: as §1

[6] = test system: Italian ryegrass (Lolium multiflorum); test: Test A postemergence, visual plant response rating; conditions: for Ryegrass, Italian plant response rating (0 to 100 scale): 500 g ai/ha, postemergence, 0 is no effect, 100 is complete control; for Ryegrass, Italian plant response rating: Postemergence, 125 g ai/ha, 0 to 100 scale (0 no effect, 100 complete control)
In short: as §1

[7] = test system: pigweed (Amaranthus retroflexus); test: Test A postemergence, visual plant response rating; conditions: for Pigweed plant response rating (0 to 100 scale): 500 g ai/ha, postemergence, 0 is no effect, 100 is complete control; for Pigweed plant response rating: Postemergence, 125 g ai/ha, 0 to 100 scale (0 no effect, 100 complete control)
In short: as §1

[8] = test system: ragweed (common ragweed, Ambrosia elatior); test: Test A postemergence, visual plant response rating; conditions: for Ragweed plant response rating (0 to 100 scale): 500 g ai/ha, postemergence, 0 is no effect, 100 is complete control; for Ragweed plant response rating: Postemergence, 125 g ai/ha, 0 to 100 scale (0 no effect, 100 complete control)
In short: as §1

[9] = test system: wheat (Triticum aestivum); test: Test A postemergence, visual plant response rating; conditions: for Wheat plant response rating (0 to 100 scale): 500 g ai/ha, postemergence, 0 is no effect, 100 is complete control; for Wheat plant response rating: Postemergence, 125 g ai/ha, 0 to 100 scale (0 no effect, 100 complete control)
In short: as §1

[10] = test system: barnyardgrass (Echinochloa crus-galli); test: Test B flooded paddy test, visual plant response rating; conditions: 250 g ai/ha, Flood, applied to paddy water, 2-leaf stage, evaluated after 13 to 15 days
In short: (§2)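 2-leaf plants; pots flooded 3 cm over soil surface; compound dosed straight into the floodwater; depth kept constant; greenhouse 13–15 d; visual rating vs. untreated controls.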

rice (Oryza sativa) = test: as above; conditions: 250 g ai/ha, Flood, applied to paddy water, 2-leaf stage, evaluated after 13 to 15 days
In short: as §2

[11] = test system: ducksalad (Heteranhera limosa); test: as above; conditions: 250 g ai/ha, Flood, applied to paddy water, 2-leaf stage, evaluated after 13 to 15 days
In short: as §2

[12] = test system: sedge, umbrella (small-flower umbrella sedge, Cyperus difformis); test: as above; conditions: 250 g ai/ha, Flood, applied to paddy water, 2-leaf stage, evaluated after 13 to 15 days
In short: as §2

[13] = test system: barnyardgrass (Echinochloa crus-galli); test: Test A preemergence, visual plant response rating; conditions: for Barnyardgrass plant response rating: 125 g ai/ha, preemergence, 0 to 100 scale, 0 no effect, 100 complete control; for Barnyardgrass plant response rating (0 to 100 scale): 500 g ai/ha Preemergence, approx. 10 days
In short: as §1

kochia (Kochia scoparia) [14] = test: Test A preemergence, visual plant response rating; conditions: for Kochia plant response rating: 125 g ai/ha, preemergence, 0 to 100 scale, 0 no effect, 100 complete control; for Kochia plant response rating (0 to 100 scale): 500 g ai/ha Preemergence, approx. 10 days
In short: as §1

[15] = test system: foxtail, giant (giant foxtail, Setaria faberii); test: Test A preemergence, visual plant response rating; conditions: for Foxtail, Giant plant response rating: 125 g ai/ha, preemergence, 0 to 100 scale, 0 no effect, 100 complete control; for Foxtail, Giant plant response rating (0 to 100 scale): 500 g ai/ha Preemergence, approx. 10 days
In short: as §1

[16] = test system: Italian ryegrass (Lolium multiflorum); test: Test A preemergence, visual plant response rating; conditions: for Ryegrass, Italian plant response rating: 125 g ai/ha, preemergence, 0 to 100 scale, 0 no effect, 100 complete control; for Ryegrass, Italian plant response rating (0 to 100 scale): 500 g ai/ha Preemergence, approx. 10 days
In short: as §1

[17] = test system: pigweed (Amaranthus retroflexus); test: Test A preemergence, visual plant response rating; conditions: for Pigweed plant response rating: 125 g ai/ha, preemergence, 0 to 100 scale, 0 no effect, 100 complete control; for Pigweed plant response rating (0 to 100 scale): 500 g ai/ha Preemergence, approx. 10 days
In short: as §1

[18] = test system: ragweed (common ragweed, Ambrosia elatior); test: Test A preemergence, visual plant response rating; conditions: for Ragweed plant response rating: 125 g ai/ha, preemergence, 0 to 100 scale, 0 no effect, 100 complete control; for Ragweed plant response rating (0 to 100 scale): 500 g ai/ha Preemergence, approx. 10 days
In short: as §1

Compound: CON=C(c1c(O)c(C)nn(C)c1=O)c1ccc(C)c2ccccc12 [Compound 131]
- Galium plant response rating (0 to 100 scale) [1]: 80
- Galium plant response rating [1]: 80
- Barnyardgrass plant response rating (0 to 100 scale) [2]: 50
- Barnyardgrass plant response rating [2]: 20
- Kochia plant response rating (0 to 100 scale) (kochia (Kochia scoparia) [3]): 30
- Kochia plant response rating (kochia (Kochia scoparia) [3]): 10
- Foxtail, Giant plant response rating (0 to 100 scale) [4]: 50
- Foxtail, Giant plant response rating [4]: 10
- Corn plant response rating (0 to 100 scale) (corn (Zea mays)): 20
- Corn plant response rating (corn (Zea mays)): 0
- Blackgrass plant response rating (0 to 100 scale) [5]: 50
- Blackgrass plant response rating [5]: 30
- Ryegrass, Italian plant response rating (0 to 100 scale) [6]: 10
- Ryegrass, Italian plant response rating [6]: 0
- Pigweed plant response rating (0 to 100 scale) [7]: 10
- Pigweed plant response rating [7]: 0
- Ragweed plant response rating (0 to 100 scale) [8]: 80
- Ragweed plant response rating [8]: 80
- Wheat plant response rating (0 to 100 scale) [9]: 0
- Wheat plant response rating [9]: 0
- Plant response rating, Barnyardgrass (0 to 100 scale, 0 is no effect, 100 is complete control) [10]: 0
- Plant response rating, Rice (0 to 100 scale, 0 is no effect, 100 is complete control) (rice (Oryza sativa)): 0
- Plant response rating, Ducksalad (0 to 100 scale, 0 is no effect, 100 is complete control) [11]: 0
- Plant response rating, Sedge, Umbrella (0 to 100 scale, 0 is no effect, 100 is complete control) [12]: 0
- Barnyardgrass plant response rating [13]: 0
- Barnyardgrass plant response rating (0 to 100 scale) [13]: 60
- Kochia plant response rating (kochia (Kochia scoparia) [14]): 0
- Kochia plant response rating (0 to 100 scale) (kochia (Kochia scoparia) [14]): 20
- Foxtail, Giant plant response rating [15]: 60
- Foxtail, Giant plant response rating (0 to 100 scale) [15]: 70
- Ryegrass, Italian plant response rating [16]: 0
- Ryegrass, Italian plant response rating (0 to 100 scale) [16]: 0
- Pigweed plant response rating [17]: 0
- Pigweed plant response rating (0 to 100 scale) [17]: 0
- Ragweed plant response rating [18]: 60
- Ragweed plant response rating (0 to 100 scale) [18]: 80

Compound: CO/N=C(/c1ccccc1C#N)c1c(O)c(C)nn(C)c1=O [Compound 77]
- Galium plant response rating (0 to 100 scale) [1]: 40
- Galium plant response rating [1]: 40
- Barnyardgrass plant response rating (0 to 100 scale) [2]: 0
- Barnyardgrass plant response rating [2]: 0
- Kochia plant response rating (0 to 100 scale) (kochia (Kochia scoparia) [3]): 30
- Kochia plant response rating (kochia (Kochia scoparia) [3]): 0
- Foxtail, Giant plant response rating (0 to 100 scale) [4]: 10
- Foxtail, Giant plant response rating [4]: 0
- Corn plant response rating (0 to 100 scale) (corn (Zea mays)): 0
- Corn plant response rating (corn (Zea mays)): 0
- Blackgrass plant response rating (0 to 100 scale) [5]: 0
- Blackgrass plant response rating [5]: 0
- Ryegrass, Italian plant response rating (0 to 100 scale) [6]: 20
- Ryegrass, Italian plant response rating [6]: 0
- Pigweed plant response rating (0 to 100 scale) [7]: 70
- Pigweed plant response rating [7]: 30
- Ragweed plant response rating (0 to 100 scale) [8]: 30
- Ragweed plant response rating [8]: 0
- Wheat plant response rating (0 to 100 scale) [9]: 0
- Wheat plant response rating [9]: 0
- Plant response rating, Barnyardgrass (0 to 100 scale, 0 is no effect, 100 is complete control) [10]: 0
- Plant response rating, Rice (0 to 100 scale, 0 is no effect, 100 is complete control) (rice (Oryza sativa)): 0
- Plant response rating, Ducksalad (0 to 100 scale, 0 is no effect, 100 is complete control) [11]: 0
- Plant response rating, Sedge, Umbrella (0 to 100 scale, 0 is no effect, 100 is complete control) [12]: 0
- Barnyardgrass plant response rating [13]: 0
- Barnyardgrass plant response rating (0 to 100 scale) [13]: 0
- Kochia plant response rating (kochia (Kochia scoparia) [14]): 0
- Kochia plant response rating (0 to 100 scale) (kochia (Kochia scoparia) [14]): 0
- Foxtail, Giant plant response rating [15]: 0
- Foxtail, Giant plant response rating (0 to 100 scale) [15]: 0
- Ryegrass, Italian plant response rating [16]: 0
- Ryegrass, Italian plant response rating (0 to 100 scale) [16]: 0
- Pigweed plant response rating [17]: 0
- Pigweed plant response rating (0 to 100 scale) [17]: 0
- Ragweed plant response rating [18]: 10
- Ragweed plant response rating (0 to 100 scale) [18]: 30
